Literature values as cited in patent publication US20040038429A1, “Method of searching for novel lead compound” (priority 2000, published 2004).
Where two headings read alike, the source gives them in different places.

Key:
Thrombin = Thrombin (Homo sapiens, UniProt P00734)
Trypsin = biological target: T1, Trypsin (Bos taurus, UniProt P00760)
T1 construct: gene PRSS1

5-HT4 = 5-HT4 (Homo sapiens, UniProt Q13639)
Sequence of 5-HT4 (Q13639 whole entry, species assumed): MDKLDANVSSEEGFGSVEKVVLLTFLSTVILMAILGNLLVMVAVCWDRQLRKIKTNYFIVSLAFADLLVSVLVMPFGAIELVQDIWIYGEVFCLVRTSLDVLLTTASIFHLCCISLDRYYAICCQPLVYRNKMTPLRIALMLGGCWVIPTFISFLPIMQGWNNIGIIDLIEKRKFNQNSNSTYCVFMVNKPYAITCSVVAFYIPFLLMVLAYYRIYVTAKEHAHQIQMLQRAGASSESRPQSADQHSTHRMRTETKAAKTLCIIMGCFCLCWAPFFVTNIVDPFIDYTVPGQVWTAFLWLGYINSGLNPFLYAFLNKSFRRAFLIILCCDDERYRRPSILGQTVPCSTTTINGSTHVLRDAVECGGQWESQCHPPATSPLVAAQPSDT

T1 sequence (P00760 24-246): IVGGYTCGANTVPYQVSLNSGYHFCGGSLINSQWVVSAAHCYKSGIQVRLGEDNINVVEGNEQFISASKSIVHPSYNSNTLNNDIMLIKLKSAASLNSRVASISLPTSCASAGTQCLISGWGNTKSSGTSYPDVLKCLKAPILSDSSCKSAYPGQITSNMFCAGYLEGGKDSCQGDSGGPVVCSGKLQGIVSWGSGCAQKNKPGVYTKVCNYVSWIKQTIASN

| Structure (SMILES) | Known bioactivity (Thrombin) | Known bioactivity (Thrombin; thrombin) | also measured |
| --- | --- | --- | --- |
| Cc1ccc(S(=O)(=O)N[C@@H](CCCCN)C(=O)CCl)cc1 |  |  | Known bioactivity (Trypsin): Trypsin inhibitor |
| COc1cc(N)c(Cl)cc1C(=O)CCC1CCN(CCNS(C)(=O)=O)CC1 |  |  | Known bioactivity (5-HT4): 5-HT4 Partial agonist |
| COC(=O)[C@H](CCCCN)NS(=O)(=O)c1ccc(C)cc1.Cl |  | Thrombin substrate |  |
| CC(=O)O.N=C(N)c1ccc(CC(NC(=O)CNS(=O)(=O)c2ccc3ccccc3c2)C(=O)N2CCCCC2)cc1 (stereo not shown) | Thrombin inhibitor |  |  |
| COC(=O)[C@H](CCCCN)NS(=O)(=O)c1ccc(C)cc1 |  | Thrombin substrate |  |
| Cc1ccc(S(=O)(=O)N[C@@H](CCCCN)C(=O)CCl)cc1.Cl |  |  | Known bioactivity (Trypsin): Trypsin inhibitor |

Further lines, with some results ahead:

| Known bioactivity (Thrombin) | Known bioactivity (Thrombin; thrombin) | Structure (SMILES) | also measured |
| --- | --- | --- | --- |
| Thrombin inhibitor |  | N=C(N)c1ccc(CC(NC(=O)CNS(=O)(=O)c2ccc3ccccc3c2)C(=O)N2CCCCC2)cc1 (stereo not shown) [drawing 33] |  |
| Thrombin inhibitor |  | N=C(N)c1ccc(CC(NC(=O)CNS(=O)(=O)c2ccc3ccccc3c2)C(=O)N2CCCCC2)cc1 (stereo not shown) [drawing 16] |  |
| Thrombin inhibitor |  | N=C(N)c1ccc(CC(NC(=O)CNS(=O)(=O)c2ccc3ccccc3c2)C(=O)N2CCCCC2)cc1 (stereo not shown) [drawing 31] |  |
|  | thrombin inhibitors | C[C@@H]1CCN(C(=O)[C@H](CCCNC(=N)N)NS(=O)(=O)c2cccc3c2NC[C@H](C)C3)[C@@H](C(=O)O)C1 [MQPA, (2R,4R)-4-methyl-1-[Nα-(3-methyl-1,2,3,4-tetrahydro-8-quinolinesulfonyl)-L-arginyl]-2-piperidinecarboxylic acid, reference compound] |  |
|  | Thrombin inhibitor | CCC1CCCN(C(=O)[C@H](CCCNC(=N)N)NS(=O)(=O)c2cccc3c(N(C)C)cccc23)C1 (stereo partly shown) [drawing 26] |  |
|  | thrombin inhibitors | Cc1ccc(S(=O)(=O)NC(Cc2ccc(C(=N)N)cc2)C(=O)N2CCCCC2)cc1 (racemic) [4-TAPAP, Nα-(4-toluene-sulfonyl)-DL-p-amidinophenylalanyl-piperidine, reference compound] |  |
|  | Thrombin inhibitor | CCC1CCCN(C(=O)[C@H](CCCNC(=N)N)NS(=O)(=O)c2cccc3c(N(C)C)cccc23)C1 (stereo partly shown) [drawing 32] |  |
